Laboratory results published in patent publication US9045501B2, “5-HT3 receptor modulators, methods of making, and use thereof” (Albany Molecular Research, Inc., priority 2009, dated 2015).

molecular target: human 5-HT3 receptor (Homo sapiens (Human), UniProt P46098); test: Radioligand binding assay (SPA format), affinity for the human 5-HT3 receptor; settings: not given
Description: The relative affinity of the various compounds for the human 5-HT3 receptor was measured in a radioligand binding assay, using a scintillation proximity assay (SPA) format. Test compounds were dissolved to 10 mM in 100% DMSO, then serially diluted at 10× assay concentrations in 100% DMSO in 96-well polypropylene plates and further diluted to 4× assay concentrations with the assay buffer. Samples were incubated in 50 mM Tris-HCl, pH 7.5, 3 mM MgCl2, 1 mM EDTA and 10% DMSO with 10 nM [9-methyl-^3H]BRL-43694 (Perkin Elmer), 3 μg of human 5-HT3 receptor membranes (Perkin Elmer) and 0.5 mg/mL SPA beads (WGA PVT, Amersham Biosciences) in a final volume of 0.2 mL. Binding reactions were set up in wells of PicoPlates-96 (Perkin Elmer) by adding consecutively 50 μL of each competing compound or buffer, SPA beads, the radioligand and 5-HT3 receptor membranes. After an overnight incubation at room temperature on a Nutator mixer, plates were centrifuged for 15 min at 1,500 rpm, followed by incubation in the dark for 30 min. Radioactivity was counted in the TopCount microplate counter (Perkin Elmer) for 5 min. Total binding control contained compound dilution buffer only; nonspecific binding was determined in the presence of 30 μM MDL-72222. Specific binding was determined by subtracting nonspecific binding from total binding. All experiments were performed in duplicate using ten concentrations of competing ligand, with ondansetron included as a control in every run. IC50 values were determined from specific binding data using XLfit4.1 curve fitting software from IDBS Ltd. The inhibition constant (Ki) was calculated from the Cheng Prusoff equation: (Ki=IC50/(1+(L/KD)), where L=concentration of radioligand in the assay, and KD=affinity of the radioligand for the receptor.

Chain of human 5-HT3 receptor (P46098 24-478): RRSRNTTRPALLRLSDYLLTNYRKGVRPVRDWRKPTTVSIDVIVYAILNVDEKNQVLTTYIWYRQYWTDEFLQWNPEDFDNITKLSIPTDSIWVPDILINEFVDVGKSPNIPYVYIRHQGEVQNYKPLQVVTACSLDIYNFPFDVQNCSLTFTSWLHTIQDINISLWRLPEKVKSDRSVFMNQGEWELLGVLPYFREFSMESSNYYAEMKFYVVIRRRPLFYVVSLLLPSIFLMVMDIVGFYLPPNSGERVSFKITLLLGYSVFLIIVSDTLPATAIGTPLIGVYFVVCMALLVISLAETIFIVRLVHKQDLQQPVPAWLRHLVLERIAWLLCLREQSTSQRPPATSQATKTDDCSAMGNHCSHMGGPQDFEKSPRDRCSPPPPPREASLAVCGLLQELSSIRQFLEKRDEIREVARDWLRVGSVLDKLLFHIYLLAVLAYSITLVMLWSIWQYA

Compound	Ki [nM]
COc1cc2c3c(cnn3CCN([C@@H]3CN4CCC3CC4)C2=O)c1 [Example 10, (S)-4-methoxy-7-(quinuclidin-3-yl)-8,9-dihydro-[1,4]diazepino[6,7,1-hi]indazol-6(7H)-one]	14
COc1ccc(Cn2cc3c4c(cccc42)C(=O)N(CC24CCN(CC2)CC4)CC3)cc1 [Example 27, 6-(4-methoxybenzyl)-2-(quinuclidin-4-ylmethyl)-2,3,4,6-tetrahydro-1H-azepino[5,4,3-cd]indol-1-one]	8

same assay, conditions: 10 μM compound, radioligand binding; read-out: h5-HT3A % inhibition @ 10 μM

Compound	inhibition at 10 µM [%]
O=C1c2cccc3nc(-c4ccccc4)n(c23)CCN1[C@H]1CN2CCC1CC2 [Example 20, 2-phenyl-6-((R)-quinuclidin-3-yl)-5,6-dihydroimidazo[4,5,1-jk][1,4]benzodiazepin-7(4H)-one]	23
O=C1c2cccc3nc(-c4ccc(F)cc4)n(c23)CCN1[C@@H]1CN2CCC1CC2 [Example 22, 2-(4-fluorophenyl)-6-((S)-quinuclidin-3-yl)-5,6-dihydroimidazo[4,5,1-jk][1,4]benzodiazepin-7(4H)-one]	69
CC(C)c1nc2cccc3c2n1CCN([C@@H]1CN2CCC1CC2)C3=O [Example 19, 2-isopropyl-6-((S)-quinuclidin-3-yl)-5,6-dihydroimidazo[4,5,1-jk][1,4]benzodiazepin-7(4H)-one]	74
CC(C)c1nc2cccc3c2n1CCN([C@H]1CN2CCC1CC2)C3=O [Example 18, 2-isopropyl-6-((R)-quinuclidin-3-yl)-5,6-dihydroimidazo[4,5,1-jk][1,4]benzodiazepin-7(4H)-one]	51

same assay, conditions: [9-methyl-3H]BRL-43694 10 nM, human 5-HT3 receptor membranes, Cheng Prusoff; read-out: h5-HT3A Ki

Compound	Ki [nM]
O=C1c2cccc3ccn(c23)CCN1[C@H]1CN2CCC1CC2 [Example 1, (R)-2-(quinuclidin-3-yl)-3,4-dihydro-[1,4]diazepino[6,7,1-hi]indol-1(2H)-one]	74
Cc1cn2c3c(cc(Cl)cc13)C(=O)N([C@@H]1CN3CCC1CC3)CC2 [Example 4, (S)-9-chloro-7-methyl-2-(quinuclidin-3-yl)-3,4-dihydro-[1,4]diazepino[6,7,1-hi]indol-1(2H)-one]	0.2
O=C1c2cc(O)cc3cnn(c23)CCN1[C@@H]1CN2CCC1CC2 [Example 12, (S)-4-hydroxy-7-(quinuclidin-3-yl)-8,9-dihydro-[1,4]diazepino[6,7,1-hi]indazol-6(7H)-one]	2
Cc1cc2c3c(cnn3CCN([C@@H]3CN4CCC3CC4)C2=O)c1 [Example 11, (S)-4-methyl-7-(quinuclidin-3-yl)-8,9-dihydro-[1,4]diazepino[6,7,1-hi]indazol-6(7H)-one]	0.8
O=C1c2cccc3nc(-c4ccccc4Cl)n(c23)CCN1[C@@H]1CN2CCC1CC2 [Example 23, 2-(2-chlorophenyl)-6-((S)-quinuclidin-3-yl)-5,6-dihydroimidazo[4,5,1-jk][1,4]benzodiazepin-7(4H)-one]	206
O=C1c2cc(Cl)cc3cnn(c23)CCN1[C@@H]1CN2CCC1CC2 [Example 8, (S)-4-chloro-7-(quinuclidin-3-yl)-8,9-dihydro-[1,4]diazepino[6,7,1-hi]indazol-6(7H)-one]	0.5
O=C1c2cccc3c2N(CCN1[C@@H]1CN2CCC1CC2)S(=O)(=O)N3 [Example 26, 6-((S)-quinuclidin-3-yl)-5,6-dihydro-1H-[1,2,5]thiadiazolo[4,3,2-jk][1,4]benzodiazepin-7(4H)-one 2,2-dioxide]	701
O=C1c2cccc3ccn(c23)CCCN1[C@@H]1CN2CCC1CC2 [Example 6, (S)-2-(quinuclidin-3-yl)-2,3,4,5-tetrahydro-1H-[1,5]diazocino[3,2,1-hi]indol-1-one]	205
O=C1c2cccc3ncn(c23)CCN1[C@@H]1CN2CCC1CC2 [Example 13, 6-((S)-quinuclidin-3-yl)-5,6-dihydroimidazo[4,5,1-jk][1,4]benzodiazepin-7(4H)-one]	32
O=C1c2cccc3ccn(c23)CCCN1[C@H]1CN2CCC1CC2 [Example 5, (R)-2-(quinuclidin-3-yl)-2,3,4,5-tetrahydro-1H-[1,5]diazocino[3,2,1-hi]indol-1-one]	416
CCc1nc2cccc3c2n1CCN([C@@H]1CN2CCC1CC2)C3=O [Example 17, 2-ethyl-6-((S)-quinuclidin-3-yl)-5,6-dihydroimidazo[4,5,1-jk][1,4]benzodiazepin-7(4H)-one]	130
O=C1c2cccc3nc(-c4ccccc4)n(c23)CCN1[C@@H]1CN2CCC1CC2 [Example 21, 2-phenyl-6-((S)-quinuclidin-3-yl)-5,6-dihydroimidazo[4,5,1-jk][1,4]benzodiazepin-7(4H)-one]	406
O=C1c2cccc3cnn(c23)CCN1CC12CCN(CC1)CC2 [Example 32, 7-(quinuclidin-4-ylmethyl)-8,9-dihydro-[1,4]diazepino[6,7,1-hi]indazol-6(7H)-one]	73
O=C1c2cccc3[nH]cc(c23)CCN1CC12CCN(CC1)CC2 [Example 28, 2-(quinuclidin-4-ylmethyl)-2,3,4,6-tetrahydro-1H-azepino[5,4,3-cd]indol-1-one]	30
O=C1c2cc(F)cc3cnn(c23)CCN1[C@@H]1CN2CCC1CC2 [Example 9, (S)-4-fluoro-7-(quinuclidin-3-yl)-8,9-dihydro-[1,4]diazepino[6,7,1-hi]indazol-6(7H)-one]	6

same assay, conditions: read-out: h5-HT3A % inhibition @ 10 μM

Compound	inhibition at 10 µM [%]
CCc1nc2cccc3c2n1CCN([C@H]1CN2CCC1CC2)C3=O [Example 16, 2-ethyl-6-((R)-quinuclidin-3-yl)-5,6-dihydroimidazo[4,5,1-jk][1,4]benzodiazepin-7(4H)-one]	39
O=C1c2cccc3[nH]c(=O)n(c23)CCN1[C@H]1CN2CCC1CC2 [Example 24, 6-((R)-quinuclidin-3-yl)-5,6-dihydroimidazo[4,5,1-jk][1,4]benzodiazepine-2,7(1H, 4H)-dione]	75
Cc1nc2cccc3c2n1CCN([C@H]1CN2CCC1CC2)C3=O [Example 14, 2-methyl-6-((R)-quinuclidin-3-yl)-5,6-dihydroimidazo[4,5,1-jk][1,4]benzodiazepin-7(4H)-one]	40
Cc1nc2cccc3c2n1CCN([C@@H]1CN2CCC1CC2)C3=O [Example 15, 2-methyl-6-((S)-quinuclidin-3-yl)-5,6-dihydroimidazo[4,5,1-jk][1,4]benzodiazepin-7(4H)-one]	80
